The source of these data is ChEMBL document CHEMBL5223066, “The medicinal chemistry of mitochondrial dysfunction: a critical overview of efforts to modulate mitochondrial health” (RSC Med Chem, 2021).

Usually EC50 stands for the midpoint of the concentration-response curve. Broadly, the efflux ratio is the permeability from basolateral to apical divided by that in the opposite direction, in the common usage. By inhibition is commonly meant the drop in the measured response relative to a control, in per cent. A higher inhibition goes with a response far below the control. One may read the Kp as tissue or fluid exposure divided by exposure in the circulation. A word on the Cmax: it is the peak of the concentration-time curve.

Series [1] can be described thus: Induction of mitophagy in human HeLa cells. The format is functional, cell-based.
The nature of series [2]: Efflux ratio in dog MDCK-MDR1 cells. Type of series: ADME, cell-based, Canis lupus familiaris.
Series [3] addresses hERG (KCNH2) (Homo sapiens, UniProt Q12809). As to the kind of experiment: Inhibition of hERG at 30 uM relative to control. The format is toxicity. (The hERG channel carries a current that helps repolarise heart muscle cells.)
A short description of series [4]: Ratio of drug level in brain to blood in BALB/c mouse at 5 mg/kg, po. Type of series: ADME, organism-based.
A short description of series [5]: Drug concentration in brain of mouse at 400 mg/kg, po qd. Type of series: ADME, organism-based. The following applies: in vivo, read-out: Ct.
Series [6] is described as follows: Cmax in human CSF at 500 mg, po qd administered for 8 weeks. More on the design: time 8 weeks, dose 500 mg, route po. The format is ADME, organism-based, Cerebrospinal fluid.
A short description of series [7]: Cmax in human CSF at 1000 mg, po bid administered for 8 weeks. Type of series: ADME, organism-based, Cerebrospinal fluid. On the set-up: dose 1000 mg, time 8 weeks, route po.
The nature of series [8]: Cmax in rat at 3 mg/kg, iv. The format is ADME, organism-based. More on the design: dose 3 mg/kg, route iv. The conditions noted are these: in vivo.

Sequence of hERG (KCNH2) (Q12809 whole entry): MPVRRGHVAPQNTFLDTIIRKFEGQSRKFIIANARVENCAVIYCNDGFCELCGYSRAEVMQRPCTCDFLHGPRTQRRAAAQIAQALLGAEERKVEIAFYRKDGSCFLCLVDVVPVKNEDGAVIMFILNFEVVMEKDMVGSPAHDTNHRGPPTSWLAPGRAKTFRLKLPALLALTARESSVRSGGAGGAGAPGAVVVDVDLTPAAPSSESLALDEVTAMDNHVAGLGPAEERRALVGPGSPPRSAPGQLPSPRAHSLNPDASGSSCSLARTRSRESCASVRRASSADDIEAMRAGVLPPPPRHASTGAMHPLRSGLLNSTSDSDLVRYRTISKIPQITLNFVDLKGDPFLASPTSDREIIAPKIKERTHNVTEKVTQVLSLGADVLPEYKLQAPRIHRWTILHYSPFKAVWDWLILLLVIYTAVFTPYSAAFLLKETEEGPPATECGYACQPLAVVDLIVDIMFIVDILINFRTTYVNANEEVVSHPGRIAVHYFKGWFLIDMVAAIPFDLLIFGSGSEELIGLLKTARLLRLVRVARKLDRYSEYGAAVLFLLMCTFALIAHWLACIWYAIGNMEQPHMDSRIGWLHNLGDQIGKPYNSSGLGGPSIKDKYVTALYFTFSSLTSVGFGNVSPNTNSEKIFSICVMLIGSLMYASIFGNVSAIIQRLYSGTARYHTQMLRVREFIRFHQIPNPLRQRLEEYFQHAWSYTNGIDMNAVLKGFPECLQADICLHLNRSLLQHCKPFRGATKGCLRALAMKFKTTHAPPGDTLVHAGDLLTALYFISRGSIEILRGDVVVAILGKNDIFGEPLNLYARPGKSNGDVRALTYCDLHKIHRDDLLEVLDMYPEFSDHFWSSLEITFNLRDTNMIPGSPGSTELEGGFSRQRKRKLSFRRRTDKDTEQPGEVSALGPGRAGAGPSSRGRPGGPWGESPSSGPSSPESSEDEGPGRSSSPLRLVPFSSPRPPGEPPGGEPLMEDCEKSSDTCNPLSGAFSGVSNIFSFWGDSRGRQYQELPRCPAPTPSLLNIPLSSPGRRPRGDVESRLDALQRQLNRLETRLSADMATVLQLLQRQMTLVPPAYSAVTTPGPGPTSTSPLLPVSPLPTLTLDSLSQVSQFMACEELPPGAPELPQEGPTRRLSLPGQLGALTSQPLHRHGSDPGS

Take `FC(F)(F)c1cc2c(NC3CCCc4ccccc43)ncnc2[nH]1` (stereo not drawn): the EC50 in series [1] is 440 nM.
For the compound `C[C@@H]1C[C@@H](NC(=O)c2ncc(-c3cccc(C#N)c3)o2)CN1C#N`, the efflux ratio in series [2] came out at 23. Moreover, testing at 30 µM in series [3] gave an inhibition of 30.2%.
On to `CO[C@H]1C[C@@H]2CC[C@@H](C)[C@@](O)(O2)C(=O)C(=O)N2CCCC[C@H]2C(=O)O[C@H]([C@H](C)C[C@@H]2CC[C@@H](OCCO)[C@H](OC)C2)CC(=O)[C@H](C)/C=C(\C)[C@@H](O)[C@@H](OC)C(=O)[C@H](C)C[C@H](C)/C=C/C=C/C=C/1C` [EVEROLIMUS], for which the Kp in series [4] was 0.015.
For the compound `c1coc(CNc2ncnc3[nH]cnc23)c1` [KINETIN], the concentration in series [5] came to 2970 nM.
As to `CN(C)C(=N)N=C(N)N` [METFORMIN], the peak concentration (Cmax) in series [6] and in series [7] was 741 nM in each case.
In series [8], `CN(CCOc1ccc(CC2SC(=O)NC2=O)cc1)c1ccccn1` (stereo not drawn) [ROSIGLITAZONE] registered a Cmax of 2960 nM.
